The values below come from publication PMC12156997, “Dihydromyricetin May Attenuate Skin Aging as a RAGE Inhibitor” (Nutrients, 2025).

Test [1] concerns the target T1, RAGE (receptor for advanced glycation end products) (Homo sapiens, UniProt Q15109).
T1 construct: gene AGER
Put plainly: SPR (Biacore 1S+, CM5 chip, RAGE immobilized, multi-cycle kinetics). It counts as binding. On the technique in general: Surface plasmon resonance follows binding to a sensor surface in real time, without labels.

The target in test [2] is T1, RAGE (receptor for advanced glycation end products). Put plainly: SPR (Biacore 1S+, CM5 chip, RAGE immobilized, multi-cycle kinetics); known RAGE inhibitor as reference. It counts as binding.

T1 sequence (Q15109 23-344): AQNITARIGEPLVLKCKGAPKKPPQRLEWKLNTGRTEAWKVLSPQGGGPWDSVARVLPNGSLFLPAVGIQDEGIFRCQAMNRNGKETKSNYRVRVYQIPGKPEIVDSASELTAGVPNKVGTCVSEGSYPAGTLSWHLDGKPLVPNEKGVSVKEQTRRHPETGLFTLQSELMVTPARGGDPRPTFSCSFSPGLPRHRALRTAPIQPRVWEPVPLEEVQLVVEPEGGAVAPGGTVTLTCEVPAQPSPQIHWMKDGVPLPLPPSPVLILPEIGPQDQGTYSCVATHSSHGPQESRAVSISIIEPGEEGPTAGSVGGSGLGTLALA

The Kd is the constant that tells how readily two partners part at equilibrium. In turn, `O=C1c2c(O)cc(O)cc2O[C@H](c2cc(O)c(O)c(O)c2)[C@H]1O` [DHM, Dihydromyricetin] showed a dissociation constant Kd in test [1] of 28.7 µM.

Consider `O=C(c1ccc(Cl)cc1)N(Cc1ccccc1)C1CCCCC1` [FPS-ZM1], for which the equilibrium dissociation constant (Kd) in test [2] amounted to 40.7 µM.
